Results on 14 molecules are retold here after PubChem BioAssay (NCI).

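Compound exposure: 48 hours, 5 concentrations, 96-well plates. TGI marks complete inhibition of growth.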

Common to all, as to assay: NCI anticancer screen, dose series, 48 h
In assay [1] the test system is MOLT-4 leukemia.
Assay [2] relates to T-47D breast.
In assay [3] the test system is EKVX NSCLC.
In assay [4] the test system is ACHN renal.
In assay [5] the test system is CAKI-1 renal.
In assay [6] the test system is MDA-MB-435.
Assay [7] concerns DU-145 prostate.
For assay [8], the system named is K-562 leukemia.
Assay [9] relates to SK-MEL-2 melanoma.

As for `CCN(CC)CCC1(C(=O)OC)SCCc2ccc(C)cc21` (stereo unspecified), the TGI in assay [1], in [2], in assay [3], in assay [4], in [5] and in [6] was over 100 µM each time. Moreover, the TGI in assay [7], in [8] and in assay [9] was over 100 µM throughout.
Regarding `NC(=O)c1nnc2c(F)cccc2c1N`, the TGI in assay [1], in [2], in [3], in [4], in assay [5] and in assay [6] was over 100 µM in each case. For the same molecule, the TGI in assay [7], in [8] and in [9] was over 100 µM each time.
Take `C/C(=N/NC(=O)c1ccccc1Nc1ccccc1C(=O)N/N=C(\C)c1ccc(C)cc1)c1ccc(C)cc1`: the TGI in assay [1], in [2], in assay [3], in assay [4], in [5] and in assay [6] was over 100 µM each time. In addition, the TGI in assay [7], in [8] and in [9] was over 100 µM throughout.
On to `O=C(CSCC(=O)N/N=C\c1cccc(Br)c1)N/N=C\c1cccc(Br)c1`, for which the TGI in assay [1] was 73 µM; in assay [2], 54.6 µM; in assay [3], 63.7 µM; in [4], 26.4 µM; in assay [5] it was 37.1 µM; in assay [6], 44.7 µM. In addition, the TGI was 48.3 µM in assay [7], 68.4 µM in assay [8] and 91.3 µM in assay [9].
Consider `NS(=O)(=O)c1ccc(NS(=O)(=O)c2ccc(NC(=O)N(c3ccccc3)c3ccccc3)cc2)cc1`, for which the TGI in assay [1] was over 100 µM; in [2], over 100 µM; in assay [3], over 100 µM; in assay [4], over 100 µM; in assay [5], over 100 µM; in [6] it was 77 µM. Moreover, the TGI in [7], in assay [8] and in [9] was over 100 µM each time.
For `CN1CCN(C2CC(=O)c3c(Cl)sc(Cl)c32)CC1` (stereo unspecified), the TGI was over 51.9 µM in [1]; over 45.9 µM in assay [2]; over 55.5 µM in assay [3]; 36.6 µM in [4]; 39.6 µM in assay [5]; 16.5 µM in assay [6]. Moreover, the TGI in assay [7] is 30.2 µM; in [8], over 100 µM; in assay [9] it was over 59.9 µM.
With `COc1ccc2c(-c3csc(-c4c[nH]c5ccccc45)n3)c[nH]c2c1`, the TGI in [1] is 19.8 µM; in assay [2], over 100 µM; in assay [3], 13.3 µM; in assay [4], 16.9 µM; in [5] it was 32.8 µM; in assay [6], over 100 µM. The TGI in assay [7] is over 44.8 µM; in [8], over 22.1 µM; in assay [9], over 86.2 µM.
Regarding `c1ccc2c(c1)[C@@H]1O[C@@H]1[C@@]13O[C@@]21[C@H]1O[C@H]1c1ccccc13`, the TGI in [1] was over 100 µM; in [2] it was 57.8 µM; in assay [3], 31.9 µM; in assay [4] it was 28.9 µM; in assay [5] it was 23.2 µM; in assay [6], 28.7 µM. Besides, the results for the TGI in assay [7], in assay [8] and in assay [9] were 29.2 µM, 41.7 µM and 37.5 µM, respectively.
For `Nc1nn2cc(-c3ccccc3)[n+](CC(=O)c3ccccc3)c2s1`, the TGI in assay [1] was 51.2 µM; in [2], 55 µM; in assay [3], over 100 µM; in assay [4], over 100 µM; in assay [5] it was over 100 µM; in assay [6] it was over 100 µM. The TGI is over 100 µM in assay [7], 66.7 µM in assay [8] and 30.4 µM in assay [9].
Take `CC1CC2OC(=N)C1(C#N)C2(C#N)C#N` (stereo unspecified): the TGI is over 100 µM in assay [1]; 97.4 µM in assay [2]; 51.1 µM in assay [3]; over 100 µM in assay [4]; 20.5 µM in [5]; over 100 µM in [6]. The TGI in [7] is over 100 µM; in assay [8], 56.2 µM; in assay [9], 43.5 µM.
Turning to `[O-][n+]1cc(SCc2ccccc2)ncc1SCc1ccccc1`, the TGI in assay [1], in assay [2], in assay [3], in assay [4], in [5] and in [6] was over 10 µM throughout. Further, the TGI in [7], in [8] and in assay [9] was over 10 µM each time.
As for `CC(C)c1cc(C(C)C)c(B(c2ccccc2)c2ccccc2)c(C(C)C)c1Br`, the TGI in assay [1], in [2], in [3], in assay [4], in [5] and in assay [6] was over 100 µM throughout. Also, the TGI in [7], in [8] and in assay [9] was over 100 µM each time.
`CC(=O)c1c2c(cc3c1CCC3)CCC2`: the TGI in assay [1] is over 100 µM; in [2] it was 46.8 µM; in assay [3], over 100 µM; in [4], over 100 µM; in [5], over 100 µM; in assay [6] it was over 100 µM. For the same molecule, the TGI in assay [7], in assay [8] and in [9] was over 100 µM throughout.
In the case of `CC(C)(CO)Nc1c(O)c2c(c(O)c1Cl)C(=O)C=CC2=O`, the TGI in assay [1] is 3.3 µM; in [2], 4.18 µM; in assay [3], 3.82 µM; in assay [4], 3.08 µM; in [5], 3.41 µM; in [6], 2.38 µM. Besides, the TGI was found to be 3.35 µM in assay [7], 1.78 µM in [8] and 4.8 µM in assay [9].
